The target of experiment [1] is T1, human P450 11A1 (Homo sapiens, UniProt P05108).
T1 construct: M A S T R S P R P F N E I P S P G D N; Met-Ala (N-terminal start residues in place of the transit peptide and Ile40) (N); made in house; host or cells: E. coli C41(DE3) with GroES/GroEL, vector pET23C(+)
T1 sequence (P05108 41-521 limits assumed): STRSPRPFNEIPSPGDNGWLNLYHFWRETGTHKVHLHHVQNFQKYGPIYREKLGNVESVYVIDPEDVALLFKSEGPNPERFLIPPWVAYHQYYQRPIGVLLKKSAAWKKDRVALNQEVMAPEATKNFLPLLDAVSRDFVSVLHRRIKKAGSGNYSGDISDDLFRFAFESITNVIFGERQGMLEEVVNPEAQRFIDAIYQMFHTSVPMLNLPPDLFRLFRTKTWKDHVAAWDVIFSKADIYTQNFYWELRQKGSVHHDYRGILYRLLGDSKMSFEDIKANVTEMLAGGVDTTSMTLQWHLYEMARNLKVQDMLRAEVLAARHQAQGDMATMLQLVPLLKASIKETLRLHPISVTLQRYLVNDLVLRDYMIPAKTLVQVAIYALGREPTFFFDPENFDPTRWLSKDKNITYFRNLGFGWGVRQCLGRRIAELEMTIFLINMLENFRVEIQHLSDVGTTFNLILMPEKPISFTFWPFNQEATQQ
The experiment can be described thus: Steady-state spectral (type I) binding titration, Kd determination. The procedure: Ligand binding constants were determined from the low-to high-spin (hypsochromic) spectral transition that occurs at the P450 heme as substrate entering the active site replaces water as the sixth axial heme ligand. […] As a result, we subsequently measured koff values of the P450-sterol complexes, which were consistent with the low Kd values observed (see below). Binding titrations were repeated in the presence of Adx (1 M equivalent, Fig. 6), although no significant effect was observed, even when Adx was added in excess (10-fold with cholesterol as the substrate, data not shown).
Spectra were recorded using either an OLIS-Cary 14 or OLIS-Aminco DW2a instrument (On-Line Instrument Systems) in the split-beam mode. The OLIS-Cary 14 instrument was used in the P450 11A1 titrations with a 10-cm cell (Starna Cells, catalog no. 34-Q-100, volume 25 ml).
Kd values were determined by difference spectroscopy as previously reported ([33], [43]) but with some modifications. Briefly, a long-path quartz cuvette (10 cm, 25 ml) containing P450 11A1 (0.1 μM, in 100 mM potassium phosphate buffer (pH 7.4)) was prepared and a baseline was recorded in an OLIS-Cary 14 spectrophotometer. Where indicated, the redox partner Adx was added in equimolar concentration (0.1 μM) to P450. Sterol solutions (in 45% HPCD, w/v) were added to the cuvette, the contents of the cuvette were inverted to mix, and a spectrum was recorded (350–500 nm) after each addition. The total volume added to each cuvette was kept ≤2% (v/v, 0.25 ml) in the assay. The maximum absorbance difference (usually ΔA390−A418) was plotted against the total sterol concentration, and the data were fit to a quadratic equation in GraphPad Prism software (GraphPad, https://www.graphpad.com) to estimate the dissociation constant (Kd). A quadratic equation was used to correct the ligand concentration for the enzyme-bound concentration (used as Y=B+A/2∗1/E∗((Kd+E+X)−(Kd+E+X)^2−(4∗E∗X)) (or Y = B + (A/2)∗(1/E)∗((Kd + E + X)-sqrt((Kd + E + X)∧2 -(4∗E∗X)) in Prism software), where E = enzyme concentration, Kd = dissociation constant, and X = […]).

Experiment [2] has as its target T2, human P450 11A1 (Homo sapiens, UniProt P05108).
T2 sequence (P05108 41-521 limits assumed): T1 sequence (P05108 41-521 limits assumed)
T2 sequence (P00257 59-186 partner): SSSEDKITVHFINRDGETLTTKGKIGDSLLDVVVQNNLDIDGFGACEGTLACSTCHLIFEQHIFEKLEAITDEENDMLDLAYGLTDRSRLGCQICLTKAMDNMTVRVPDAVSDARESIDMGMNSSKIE
The experiment is described as follows: Kinetic modeling of single-turnover reactions (KinTek Explorer). Type of experiment: biochemical. The arrangement: M A S T R S P R P F N E I P S P G D N; Met-Ala (N-terminal start residues in place of the transit peptide and Ile40) (N); made in house; host or cells: E. coli (P450 11A1 in C41(DE3); Adx and AdR in E. coli). The following applies: for k^+ of oxidation step of enzyme-bound sterol, high Adx: high Adx (50 μM); for k^+ of oxidation step of enzyme-bound sterol, high Adx / k^+ of oxidation step of enzyme-bound sterol, low Adx: adjusted to fit single-turnover data; for k^+ of oxidation step of enzyme-bound sterol, low Adx: low Adx (5 μM). The source says:
A minimal kinetic model was assembled to fit the data of the single-turnover reactions (Fig. 9) using the parameters listed in Table 2 (Fig. 14). […] Each oxidation reaction is irreversible, and thus the rates of the reverse reactions (k-2, k-4, k-6) were set to zero. The single-turnover data (Fig. 9) were fit to a single exponential to calculate the first-order decay of cholesterol, that is, the rate of cholesterol 22R-hydroxylation (k2). […] The rate of 20R-hydroxylation of 22R-OH cholesterol (k4) was estimated similarly to k2 from exponential fitting of first-order formation of the 20R,22R-(OH)2 sterol from the 22R-OH sterol.
Data were imported into KinTek Explorer software (v. 11.01, KinTek, https://kintekcorp.com/software) ([63]) as txt files and processed using an Apple computer (operating system 11.6.2). The indicated kinetic model (Table 2) was used with the enzyme and substrate concentrations, first estimating the rate of disappearance of the substrate cholesterol.

The mark [3] stands for this setting: 0.10 μM P450 11A1, 10 cm cuvette, with 0.10 μM Adx, quadratic fit, read-out: Kd, (+) Adx.
The mark [4] stands for this setting: 0.10 μM P450 11A1, 10 cm cuvette, without Adx, quadratic fit, read-out: Kd, (−) Adx.
[5] abbreviates: read-out: k^+ for ligand binding to P450 11A1 (kon) used in model, set to the value determined for P450 11A1 and ketoconazole.
Where [6] appears, read: read-out: k^− for ligand dissociation (koff) used in model, values measured by stopped-flow spectroscopy.

A word on the Kd: it is a measure of binding affinity in units of concentration. The kon is the rate constant with which the complex forms. For orientation: koff means the first-order rate constant of dissociation.

SMILES strings stand for the structures. Like-named read-outs stand apart in the source and are kept apart here.

In the case of `CC(C)CC[C@@H](O)[C@](C)(O)[C@H]1CC[C@H]2[C@@H]3CC=C4C[C@@H](O)CC[C@]4(C)[C@H]3CC[C@]12C` [20R,22R-(OH)2 Chol, (20R,22R)-Cholest-5-ene-3β,20,22-triol], the dissociation constant (Kd) in experiment [1] (setting [3]) is 0.04 ± 0.01 µM. Further, the Kd in experiment [1] (setting [4]) is 0.03 ± 0.02 µM. In experiment [2], the “k^+ of oxidation step of enzyme-bound sterol, high Adx” value was found to be 1.7 s⁻¹ and the “k^+ of oxidation step of enzyme-bound sterol, low Adx” value came out at 0.55 s⁻¹. Besides, the on-rate (kon) in experiment [2] (setting [5]) stood at 500000 M⁻¹ s⁻¹. Also, in experiment [2] (read-out: k^− for ligand dissociation (koff) used in model), the koff was 0.39 s⁻¹. In addition, the “k^+ for ligand binding to P450 11A1 (kon) used in model” value (shortened to “k^+ for ligand binding to P450 11A1”) in experiment [2] (set to the value determined for P450 11A1 and ketoconazole, listed as Q) worked out at 530000 M⁻¹ s⁻¹.

Take `CC(C)CC[C@H](O)[C@](C)(O)[C@H]1CC[C@H]2[C@@H]3CC=C4C[C@@H](O)CC[C@]4(C)[C@H]3CC[C@]12C` [20R,22S-(OH)2 Chol, (20R,22S)-Cholest-5-ene 3β,20,22-triol]: the Kd in experiment [1] (setting [3]) was 0.09 ± 0.02 µM; in experiment [1] (setting [4]), 0.12 ± 0.03 µM.

`CC(C)CC[C@@H](O)[C@@H](C)[C@H]1CC[C@H]2[C@@H]3CC=C4C[C@@H](O)CC[C@]4(C)[C@H]3CC[C@]12C` [22R-OH Chol, 22R-hydroxycholesterol]: the Kd in experiment [1] (Kd, 100 nM P450 11A1, 10-cm cell, quadratic fitting) was roughly 0.02 µM; in experiment [1] (Kd, (+) Adx, 0.10 μM P450 11A1, 10 cm cuvette, with 0.10 μM Adx, quadratic fit), 0.02 ± 0.003 µM; in experiment [1] (Kd, (−) Adx, 0.10 μM P450 11A1, 10 cm cuvette, without Adx, quadratic fit) it was 0.02 ± 0.01 µM. Besides, in experiment [2], the “k^+ of oxidation step of enzyme-bound sterol, high Adx” value was 1.5 s⁻¹. For the same compound, the “k^+ of oxidation step of enzyme-bound sterol, low Adx” value in experiment [2] came out at 0.4 s⁻¹. Moreover, in experiment [2] (setting [5]), the kon amounted to 500000 M⁻¹ s⁻¹. Further, in experiment [2] (setting [6]), the off-rate (koff) is 0.04 s⁻¹. The “k^+ for ligand binding to P450 11A1” value in experiment [2] (set to the value determined for P450 11A1 and ketoconazole, listed as P) was 530000 M⁻¹ s⁻¹. Further, the “k^− for ligand dissociation (koff) used in model” value in experiment [2] (values measured by stopped-flow spectroscopy, listed as P) stood at 0.044 s⁻¹.

As to `CC(C)CCC[C@@H](C)[C@H]1CC[C@H]2[C@@H]3CC=C4C[C@@H](O)CC[C@]4(C)[C@H]3CC[C@]12C` [Cholesterol], the equilibrium dissociation constant (Kd) in experiment [1] (setting [3]) is 0.11 ± 0.01 µM. In addition, the Kd in experiment [1] (setting [4]) worked out at 0.12 ± 0.01 µM. In experiment [2], the “k^+ of oxidation step of enzyme-bound sterol, high Adx” value worked out at 0.12 s⁻¹ and the “k^+ of oxidation step of enzyme-bound sterol, low Adx” value was 0.04 s⁻¹. Also, the on-rate (kon) in experiment [2] (setting [5]) is 500000 M⁻¹ s⁻¹. In addition, the dissociation rate constant (koff) in experiment [2] (setting [6]) stood at 0.24 s⁻¹. The “k^+ for ligand binding to P450 11A1” value in experiment [2] (set to the value determined for P450 11A1 and ketoconazole, listed as S) is 530000 M⁻¹ s⁻¹.

Regarding `CC(=O)[C@H]1CC[C@H]2[C@@H]3CC=C4C[C@@H](O)CC[C@]4(C)[C@H]3CC[C@]12C` [Pregnenolone], the results for the dissociation constant (Kd) in experiment [1] (setting [3]) and in experiment [1] (setting [4]) were 0.56 ± 0.12 µM and 0.48 ± 0.22 µM, respectively. In addition, the “k^+ for ligand binding to P450 11A1” value in experiment [2] (set to the value determined for P450 11A1 and ketoconazole, listed as R) is 530000 M⁻¹ s⁻¹. Further, in experiment [2] (set to the value determined for P450 11A1 and ketoconazole, read-out: k^+ for ligand binding to P450 11A1 (kon) used in model), the on-rate constant (kon) came out at 500000 M⁻¹ s⁻¹. In addition, the off-rate constant (koff) in experiment [2] (values measured by stopped-flow spectroscopy, read-out: k^− for ligand dissociation (koff) used in model) was 0.55 s⁻¹.
